From patent US20080039383A1, “Methods and compositions for inhibiting ER-stress induced cholesterol/triglyceride accumulation” (HAMILTON CIVIC HOSPITAL RESEARCH DEVELOPMENT INC., priority 1999, published 2008)
Entries after “also recorded” stand apart in the source; their conditions may differ. One block for each compound: values may come before it.

Key:
[1] = tested on: SREBP, HMG-CoA reductase, IPP isomerase (IPPI) and FPP synthase mRNA; experiment: Northern blot analysis of cholesterol/triglyceride biosynthesis and uptake gene mRNA in cultured human cells; format: cell-based; details: for expression of cholesterol biosynthetic enzymes (Northern analysis): HUVEC and HepG2 cells; for steady-state mRNA levels of IPPI / steady-state mRNA levels of IPPI (IPP isomerase): 4 hours; for steady-state mRNA levels of IPPI: 5 mM amino acid or 2 mM DTT; for steady-state mRNA levels of IPPI (IPP isomerase): homocysteine 5 mM, DTT, β-mercaptoethanol 5 mM, tunicamycin 10 μg/ml, A23187 10 μM; for IPPI mRNA levels: 0-18 hours
Procedure: (§1) Cell culture and treatment conditions. Primary human umbilical vein endothelial cells (HUVEC) were isolated by collagenase treatment of human umbilical veins (Jaffe, E. A, 1973) and cultured in EC medium (M199 medium, 20 μg/ml endothelial cell growth factor, 90 μg/ml porcine intestinal heparin, 100 μg/ml penicillin and 100 μg/ml streptomycin) containing 20% fetal bovine serum (Hyclone; Logan, Utah) in a humidified incubator at 37° C. with 5% CO2. Cells from passages 2-4 were used in these studies. Human aortic smooth muscle cells (HASMC) were purchased from Cascade Biologicals (Portland, Oreg.) and cultured in M231 media (Cascade Biologicals) containing smooth muscle cell growth supplement (Cascade Biologicals). The human hepatocarcinoma cell line, HepG2, was obtained from the American Type Culture Collection (ATCC; Rockville, Md.) and cultured in A-DMEM containing 10% fetal bovine serum. DL-homocysteine, L-methionine, DL-cysteine, glycine, DL-dithiothreitol ([…]), tunicamycin, A23187 and β-mercaptoethanol were purchased from Sigma (St. Louis, Mo.). These compounds were prepared fresh in culture medium, sterilized by filtration and added to the cell cultures.
(§2) Preparation of Total RNA. […] .

[2] = tested on: GRP78/BiP and GADD153 mRNA; experiment: Northern blot analysis of ER stress response genes in HepG2 cells; format: cell-based, human; details: 4 h, 5 mM amino acids, 2.5 mM DTT, 10 μg/ml tunicamycin
Procedure: as §1, §2

[3] = tested on: HASMC; experiment: Intracellular total cholesterol in HASMC; format: cell-based, human; details: 0-5 mM, 24-48 h
Procedure: (§3) Lipids are extracted with hexane:isopropanol (3:2), dried and resuspended in hexane. Colorimetric cholesterol assays is carried out using the Sigma Diagnostics Cholesterol Reagent (Sigma) to determine total cholesterol levels. Total plasma cholesterol are measured using the same assay but without the lipid extraction step.
as §1
(§4) Total cholesterol and triglyceride levels.

[4] = tested on: cultured cells; details: cited from earlier work; for overall cell number or viability: extracellular concentrations up to 5 mM
[5] = tested on: HepG2 cells; experiment: Intracellular total cholesterol in HepG2 cells; format: cell-based, human; details: HepG2, 0-5 mM, 24-48 h
Procedure: as §3, §1, §4

[6] = tested on: HASMC; experiment: BODIPY FL LDL binding and uptake in HASMC; format: cell-based, human
Procedure: as §1
(§5) Uptake of BODIPY FL LDL and image analysis. […] Images were subsequently captured and analyzed using Northern Exposure image analysis/archival software (Mississauga, ON).

[7] = tested on: GRP78/BiP and GRP94; experiment: Immunoblot with anti-KDEL mAb in HepG2 cells; format: cell-based, human; details: HepG2, 5 mM homocysteine, 8, 18 and 36 h
Procedure: as §1
(§6) Immunoblot analysis. The anti-KDEL mAb (SPA-827), which recognizes both GRP78/BiP and GRP94, was purchased from StressGen Biotechnologies (Victoria, BC). […]

[8] = tested on: HUVEC; experiment: Intracellular total cholesterol in HUVEC; format: cell-based, human; details: 0-5 mM, 24-48 h
Procedure: as §3
as §1, with “These compounds were prepared fresh in culture medium, sterilized by filtration and added to the cell cultures.” left out

[9] = tested on: SREBP-1; experiment: Immunoblot of SREBP-1 precursor and mature forms in HepG2 cells; format: cell-based, human; details: 5 mM homocysteine
Procedure: as §1, §6

[10] = tested on: HUVEC; experiment: BODIPY FL LDL / AcLDL binding and uptake in HUVEC; format: cell-based, human
Procedure: as §1, §5

[11] = tested on: HepG2 cells; experiment: BODIPY FL LDL binding and uptake in HepG2 cells; format: cell-based, human; details: 5 mM homocysteine 8 hr
Procedure: as §1, §5

[12] = tested on: SREBP-2; experiment: Immunoblot of SREBP-2 forms in HepG2 cells; format: cell-based, human; details: HepG2 cells (data not shown)
Procedure: as §1, §6

[13] = HepG2 cells, 5 mM homocysteine, 0-18 h

Compound: O[C@H](CS)[C@H](O)CS (racemic) [DTT, DL-dithiothreitol]
expression of cholesterol biosynthetic enzymes (Northern analysis) [1]: induce the cholesterol biosynthetic pathway in a manner similar to that of homocysteine
steady-state mRNA levels of IPPI ([1]; HUVEC): significantly increased IPPI mRNA levels
steady-state mRNA levels of IPPI (IPP isomerase) ([1]; HepG2 cells): induced the expression of IPP isomerase; also recorded: increase IPPI mRNA levels
steady-state mRNA levels of GRP78/BiP and GADD153 [2]: also induced the steady-state mRNA levels of GRP78/BiP and GADD153

Compound: N[C@@H](CCO)C(=O)O [homoserine]
steady-state mRNA levels of IPPI ([1]; HUVEC): only homocysteine and DTT significantly increased IPPI mRNA levels
steady-state mRNA levels of GRP78/BiP and GADD153 [2]: failed to induce the expression of these ER stress response genes

Compound: NCC(=O)O [glycine]
steady-state mRNA levels of IPPI ([1]; HUVEC): only homocysteine and DTT significantly increased IPPI mRNA levels
steady-state mRNA levels of GRP78/BiP and GADD153 [2]: failed to induce the expression of these ER stress response genes

Compound: tunicamycin
expression of cholesterol biosynthetic enzymes (Northern analysis) [1]: induce the cholesterol biosynthetic pathway in a manner similar to that of homocysteine
steady-state mRNA levels of IPPI (IPP isomerase) ([1]; HepG2 cells): induced the expression of IPP isomerase; also recorded: increase IPPI mRNA levels
steady-state mRNA levels of GRP78/BiP and GADD153 [2]: also induced the steady-state mRNA levels of GRP78/BiP and GADD153

Compound: NC(CS)C(=O)O (racemic) [cysteine, DL-cysteine]
total cellular cholesterol normalized to protein [3]: but not cysteine, increased cellular cholesterol
overall cell number or viability [4]: does not effect cell viability
total cellular cholesterol normalized to protein [5]: but not cysteine, increased cellular cholesterol
expression of cholesterol biosynthetic enzymes (Northern analysis) [1]: no other amino acids, including thiol-containing methionine and cysteine, have significant effects
steady-state mRNA levels of IPPI ([1]; HUVEC): only homocysteine and DTT significantly increased IPPI mRNA levels
steady-state mRNA levels of GRP78/BiP and GADD153 [2]: failed to induce the expression of these ER stress response genes

ability to bind LDL ([6]; after 18 h of incubation): no impairment
Compound: NC(CCS)C(=O)O (racemic) [homocysteine, DL-homocysteine]
LDL uptake ([6]; 5 mM homocysteine 8 hr): maintained their ability to endocytose LDL
GRP78/BiP and GRP94 protein levels [7]: elevated
total cellular cholesterol normalized to protein [8]: no significant change in the total cholesterol concentration; also recorded: unchanged
levels of active (68 kDa) and precursor (125 kDa) forms of SREBP-1 [9]: increased levels of both active (68 kDa) and precursor (125 kDa) forms of SREBP-1
LDL or AcLDL binding ([10]; 4 hour pre-treatment with 5 mM homocysteine): no significant effect
LDL and AcLDL binding/uptake ([10]; 8 h incubation with 5 mM homocysteine): significant decrease in LDL and AcLDL binding; also recorded: significant decrease in LDL uptake; also recorded: similarly down-regulated
total cellular cholesterol normalized to protein [3]: promotes cholesterol accumulation
total cellular cholesterol normalized to protein ([3]; listed as Homocysteine): increased cellular cholesterol
overall cell number or viability [4]: no effect on overall cell number or viability; also recorded: does not effect cell viability
EC injury ([4]; homocysteine concentrations up to 5 mM): do not cause EC injury
total cellular cholesterol normalized to protein [5]: promotes cholesterol accumulation
total cellular cholesterol normalized to protein ([5]; listed as Homocysteine): increased cellular cholesterol
IPPI mRNA levels ([1]; HASMC, 5 mM homocysteine): significantly increases IPPI mRNA levels
IPPI mRNA levels ([1]; HUVEC, 5 mM homocysteine): significantly increases IPPI mRNA levels
expression of cholesterol biosynthetic pathway genes, clusterin and SREBP ([1]; HUVEC, 1-5 mM homocysteine for as little as 2 hours): enhanced
steady-state mRNA levels of IPPI ([1]; HUVEC): significantly increased IPPI mRNA levels
IPPI mRNA levels ([1]; HepG2, 5 mM homocysteine): significantly increases IPPI mRNA levels
steady-state mRNA levels of SREBP, HMG-CoA reductase and FPP synthase ([1]; HepG2 cells, 5 mM homocysteine, 0, 2, 4, 8 or 18 hours): increased steady-state mRNA levels for all transcripts
steady-state mRNA levels of HMG-CoA reductase, IPP isomerase and FPP synthase [1, 13]: increased and peaked between 2 and 4 hr
steady-state mRNA levels of SREBP-1 [1, 13]: increased and peaked between 2 and 4 h
steady-state mRNA levels of IPPI (IPP isomerase) ([1]; HepG2 cells): induced the expression of IPP isomerase; also recorded: increase IPPI mRNA levels
mRNA levels of acetyl CoA carboxylase, fatty acid synthase and LDL receptor ([1]; homocysteine treated HepG2 cells (data not shown)): also increased
LDL binding/uptake [11]: may further enhance LDL binding; also recorded: enhanced LDL uptake
active and precursor forms of SREBP-2 [12]: also increased
steady-state mRNA levels of GRP78/BiP and GADD153 [2]: increased steady-state mRNA levels of GRP78/BiP and GADD153

Compound: CNc1ccc2oc(C[C@H]3O[C@@]4(CC[C@H]3C)O[C@H]([C@H](C)C(=O)c3ccc[nH]3)[C@H](C)C[C@H]4C)nc2c1C(=O)O [A23187]
expression of cholesterol biosynthetic enzymes (Northern analysis) [1]: induce the cholesterol biosynthetic pathway in a manner similar to that of homocysteine
steady-state mRNA levels of IPPI (IPP isomerase) ([1]; HepG2 cells): induced the expression of IPP isomerase; also recorded: increase IPPI mRNA levels

Compound: OCCS [β-mercaptoethanol]
steady-state mRNA levels of IPPI (IPP isomerase) ([1]; HepG2 cells): induced the expression of IPP isomerase; also recorded: increase IPPI mRNA levels

Compound: C[C@@H]1C[C@@H]([C@H](O)CC2CC(=O)NC(=O)C2)C(=O)[C@@H](C)C1 [cycloheximide]
effect on induction of cholesterol/triglyceride genes by homocysteine ([1]; data not shown): does not block the induction of these genes by homocysteine

Compound: CSCC[C@H](N)C(=O)O [methionine, L-methionine]
expression of cholesterol biosynthetic enzymes (Northern analysis) [1]: no other amino acids, including thiol-containing methionine and cysteine, have significant effects
steady-state mRNA levels of IPPI ([1]; HUVEC): only homocysteine and DTT significantly increased IPPI mRNA levels
steady-state mRNA levels of GRP78/BiP and GADD153 [2]: failed to induce the expression of these ER stress response genes
